Results: US10016382B2, “Method for decreasing skeletal muscle damage and/or oxidative stress in mammals” (LONZA INC., priority 2014, dated 2018)
“And” between values parts separate entries of the source, which are not always exact repeats. Equal entries are not always repeated.

What was measured:
Creatine kinase (CK) = assay: Serum creatine kinase (muscle damage biomarker), Example 1; format: in vivo, dog; details: for Creatine Kinase, serum, Mean / Change in Creatine Kinase Activity, post-run minus pre-run: Ex.1, 250 mg/d; for Change in Creatine Kinase Activity, post-run minus pre-run: following 15 mile long run at 13 wk, mean ± SEM
Experimental: Blood Analysis: Serum samples were taken at three different times from each dog during the 90 day period. The blood samples were collected as follows: 1.) just prior to scanning each dog for body composition at the beginning of the study, 2.) prior to the long run on the 13th week, and 3.) following the long run on the 13th week. The serum samples were analyzed for Phosphocreatine Kinase and Canine Myoglobin to determine the amount of muscle protein leakage that occurred following the long run and TBARS and Total Antioxidant Capacity (TAC) were determined to evaluate the antioxidant status of each of the test dogs during the exercise program. The final blood sample was taken 24 hr after the long run to obtain maximum protein leakage based on previous similar types of exercise research with human athletes. Biomarkers and Assay Methods: Blood was drawn from each dog using a serum separator tube at three different times during the 90 day period: 1.) just prior to scanning each dog for body composition at the beginning of the study, 2.) prior to the long run on the 13th week, and 3.) following the long run on the 13th week. The final blood sample was taken 24 hr after the long run to obtain maximum protein leakage based on previous similar types of exercise research with human athletes. Each time after the blood was drawn it was allowed to clot before being centrifuged for 15 min at 2000 g at 4° C. Serum was aliquoted into 1.5 mL microcentrifuge tubes and stored at −80° C. until assays were ran following the end of the study. Creatine kinase (CK) and canine myoglobin were measured to determine the amount of muscle protein leakage that occurred following the long run. Thiobarbituric acid reactive substances (TBARS) and total antioxidant capacity (TAC) were measured to evaluate the antioxidant status of each of the test dogs during the exercise program. Serum samples were analyzed for total antioxidant capacity (TAC) and thiobarbituric acid reactive substances (TBARS) using commercially available colorimetric kits supplied by Cayman Chemical Company (Ann Arbor, Mich.) per manufacturer instructions. Serum canine myoglobin levels were determined using a commercially available ELISA supplied by Innovate Research (Novi, Mich.) per manufacturer instructions. Creatine kinase activity was determined colorimetrically using a commercially available kit supplied by BioVision (San Francisco, Calif.).

[1] = Daily food consumption, Example 1; format: in vivo, dog; details: Ex.1, 250 mg/d; for Daily Food Intake: mean ± SEM
Experimental: Experimental Design: Forty Labrador Retrievers (labs) ranging in age from 1 to 3.5 years were incorporated into a two dietary treatment study. The two dietary treatments were based on feeding the test dogs the same low L-carnitine diet but adding 250 mg per day of L-carnitine to the L-carnitine group. Each of the L-carnitine dogs received the daily 250 mg of L-carnitine mixed with an additional 3.75 g sugar. The control dogs received 4 g of sugar each day. Twenty labs of equal gender, age, excitement level, frame size, body weight and genetic background were utilized for each of the two treatments. The labs utilized for the nutrition study were from a minimum of 6 different bitches. The lean body mass of the 40 test dogs was determined by scanning with the DEXA and the final key component utilized to assure equal groups. Prior to the start of the study, the labs were acclimated to the experimental diets for a minimum of 10 days. The labs were weighed at the beginning of the 90 day study and weighed every two weeks throughout the study. Feed consumption was determined daily by weighing feed provided and feed refusals. The quantity of food provided each dog on a daily basis was adjusted based on maintaining a minimum initial starting body weight throughout the study. The dog food was provided by Lonza Inc. and was equal to the minimum guaranteed analysis of Gold N Pro (MFA of Missouri) that the performance dogs had been consuming prior to the start of the study (Table 1).

SMILES: C[N+](C)(C)C[C@H](O)CC(=O)[O-] [L-carnitine]
- Creatine Kinase Least Sq Mean (Creatine kinase (CK); Baseline): 24.88 mU/mL
- Creatine Kinase Least Sq Mean (Creatine kinase (CK); Baseline, F): 35.85 mU/mL
- Creatine Kinase Least Sq Mean (Creatine kinase (CK); Baseline, M): 13.91 mU/mL
- Creatine Kinase, serum, Mean (Creatine kinase (CK); Baseline, both sexes): 22.9 mU · mL
- Creatine Kinase, serum, Mean (Creatine kinase (CK); Baseline, females): 35.8 mU · mL
- Creatine Kinase, serum, Mean (Creatine kinase (CK); Baseline, males): 13.9 mU · mL
- Creatine Kinase, serum, Mean (Creatine kinase (CK); Post-run (24 hr after 15 mile run), both sexes): 16.1 mU · mL
- Creatine Kinase, serum, Mean (Creatine kinase (CK); Post-run, females): 19.9 mU · mL
- Creatine Kinase, serum, Mean (Creatine kinase (CK); Post-run, males): 12.2 mU · mL
- Creatine Kinase, serum, Mean (Creatine kinase (CK); Pre-run (24 hr before 15 mile run), both sexes): 7.0 mU · mL
- Creatine Kinase, serum, Mean (Creatine kinase (CK); Pre-run, females): 6.9 mU · mL
- Creatine Kinase, serum, Mean (Creatine kinase (CK); Pre-run, males): 7.0 mU · mL
- Change in Creatine Kinase Activity, post-run minus pre-run (Creatine kinase (CK); both sexes, text: units): 9.3 and 9.3 ± 1.86 n = 18
- Change in Creatine Kinase Activity, post-run minus pre-run (Creatine kinase (CK); females): 13.06 ± 2.06 n = 9
- Change in Creatine Kinase Activity, post-run minus pre-run (Creatine kinase (CK); males): 5.54 and 5.54 ± 2.63 n = 9
- Creatine Kinase Least Sq Mean (Creatine kinase (CK); Post-run): 16.08 mU/mL
- Creatine Kinase Least Sq Mean (Creatine kinase (CK); Post-run, F): 19.94 mU/mL
- Creatine Kinase Least Sq Mean (Creatine kinase (CK); Post-run, M): 12.21 mU/mL
- Creatine Kinase Least Sq Mean (Creatine kinase (CK); Pre-run): 6.96 mU/mL
- Creatine Kinase Least Sq Mean (Creatine kinase (CK); Pre-run, F): 6.888 mU/mL
- Creatine Kinase Least Sq Mean (Creatine kinase (CK); Pre-run, M): 7.032 mU/mL
- Creatine Kinase Least Sq Mean (Creatine kinase (CK); Treatment * Sex, F): 35.85 mU/mL
- Creatine Kinase Least Sq Mean (Creatine kinase (CK); Treatment * Sex, M): 13.91 mU/mL
- Creatine Kinase Least Sq Mean (Creatine kinase (CK); Treatment level, all dogs): 24.88 mU/mL
- Creatine Kinase, mixed model Estimate, term Time[Post-run-Pre-run] * Treatment[L-carnitine] (Creatine kinase (CK); serum, model term): −2.544 mU/mL
- Creatine Kinase, mixed model Estimate, term Time[Post-run-Pre-run] * Treatment[L-carnitine] * Sex[F] (Creatine kinase (CK); serum, model term): 1.335 mU/mL
- Creatine Kinase, mixed model Estimate, term Time[Pre-run-Baseline] * Treatment[L-carnitine] (Creatine kinase (CK); serum, model term): −3.029 mU/mL
- Creatine Kinase, mixed model Estimate, term Time[Pre-run-Baseline] * Treatment[L-carnitine] * Sex[F] (Creatine kinase (CK); serum, model term): −5.661 mU/mL
- Creatine Kinase, mixed model Estimate, term Treatment[L-carnitine] (Creatine kinase (CK); serum, model term): 3.121 mU/mL
- Creatine Kinase, mixed model Estimate, term Treatment[L-carnitine] * Sex[F] (Creatine kinase (CK); serum, model term): 5.935 mU/mL
- Daily Food Intake ([1]; Week 2): 723 ± 26 n = 20 g
- Daily Food Intake ([1]; Week 4): 636 ± 30 n = 20 g
- Daily Food Intake ([1]; Week 5): 639 ± 27 n = 20 g
- Daily Food Intake ([1]; Week 6): 651 ± 26 n = 20 g
- Daily Food Intake ([1]; Week 7): 626 ± 24 n = 20 g
- Daily Food Intake ([1]; Week 8): 626 ± 24 n = 20 g
- Daily Food Intake ([1]; Week 9): 622 ± 26 n = 20 g
- Daily Food Intake ([1]; Week 10): 570 ± 25 n = 20 g
- Daily Food Intake ([1]; Week 11): 577 ± 24 n = 20 g
- Daily Food Intake ([1]; Week 13): 555 ± 20 n = 20 g
- Food consumption vs control ([1]; over the entire 13 wk period): not significantly different
- Daily Food Intake ([1]; overall Average of 13 wk study): 626 g and 626 ± 24 n = 20 g
